From paper PMC7118906, “Esculetin Inhibits Cancer Cell Glycolysis by Binding Tumor PGK2, GPD2, and GPI” (Frontiers in Pharmacology, 2020) come the findings set out here.

By Kd is commonly meant a measure of binding affinity in units of concentration. A lower Kd goes with a tighter complex.

Common to all, as to type: binding
The target in experiment [1] is T1, phosphoglycerate kinase 2 (PGK2) (Homo sapiens, UniProt P07205).
T1 sequence (P07205 2-417): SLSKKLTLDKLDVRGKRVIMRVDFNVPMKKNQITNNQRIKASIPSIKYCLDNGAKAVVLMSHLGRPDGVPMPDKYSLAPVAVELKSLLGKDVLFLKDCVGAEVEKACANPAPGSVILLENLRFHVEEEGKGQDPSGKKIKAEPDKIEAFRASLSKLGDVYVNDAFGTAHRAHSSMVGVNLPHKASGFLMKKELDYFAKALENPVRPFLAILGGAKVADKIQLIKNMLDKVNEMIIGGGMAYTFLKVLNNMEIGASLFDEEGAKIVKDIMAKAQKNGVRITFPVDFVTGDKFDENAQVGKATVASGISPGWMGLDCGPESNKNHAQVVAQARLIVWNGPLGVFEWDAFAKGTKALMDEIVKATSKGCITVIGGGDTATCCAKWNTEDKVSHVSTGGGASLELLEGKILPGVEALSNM
Briefly: microscale thermophoresis with labeled purchased protein (Abcam ab123166). (In general: Microscale thermophoresis detects binding through changes in fluorescence in a small temperature gradient.)

Experiment [2] addresses T2, glycerol-3-phosphate dehydrogenase (GPD2) (Homo sapiens, UniProt P43304).
T2 sequence (P43304 43-727): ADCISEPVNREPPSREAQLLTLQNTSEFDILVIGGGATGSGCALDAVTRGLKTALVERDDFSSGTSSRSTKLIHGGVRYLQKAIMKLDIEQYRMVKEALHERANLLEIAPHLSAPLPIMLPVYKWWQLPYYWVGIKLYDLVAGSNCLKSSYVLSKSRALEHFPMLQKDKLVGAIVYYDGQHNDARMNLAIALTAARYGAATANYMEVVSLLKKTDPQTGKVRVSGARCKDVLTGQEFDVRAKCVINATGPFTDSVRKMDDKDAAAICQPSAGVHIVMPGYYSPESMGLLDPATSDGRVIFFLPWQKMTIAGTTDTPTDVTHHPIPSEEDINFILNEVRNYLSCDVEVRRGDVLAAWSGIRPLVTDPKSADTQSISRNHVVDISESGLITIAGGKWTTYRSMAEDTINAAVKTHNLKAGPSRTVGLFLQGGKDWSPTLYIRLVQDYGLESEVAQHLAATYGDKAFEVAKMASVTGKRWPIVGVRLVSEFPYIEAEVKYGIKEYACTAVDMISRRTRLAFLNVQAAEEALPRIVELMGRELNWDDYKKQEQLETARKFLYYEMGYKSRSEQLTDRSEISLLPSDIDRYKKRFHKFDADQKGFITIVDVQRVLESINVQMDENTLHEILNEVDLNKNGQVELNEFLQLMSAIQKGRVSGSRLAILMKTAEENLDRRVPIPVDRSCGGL
Briefly: microscale thermophoresis with labeled purchased protein (Abcam ab153790).

In experiment [3] the target is glucose-6-phosphate isomerase (GPI) (Homo sapiens, UniProt P06744). Nature of the experiment: microscale thermophoresis with labeled purchased protein (Abcam ab208311).

In the case of `O=c1ccc2cc(O)c(O)cc2o1` [Esculetin], the values for the Kd in experiment [1], in experiment [2] and in experiment [3] were 161 ± 63.3 nM, 666 ± 196 nM and 127 ± 22.4 nM, respectively.
